Results taken from the supplement of paper PMC10307832.

Legend:
Assay in all cases: relative viability (nuclei count vs DMSO), 5 days (fraction); higher = more cells survive
[1] = system: NCI-H727
Outline: (§1)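 Cells from lung cancer lines were seeded into 1536-well plates and, one day later, dosed by pin tool. Treatments were either a single drug or a fixed dose of an anchor drug with five library-drug doses (not always all listed) in √10 steps. After 5 days, nuclei were stained in a one-step fixation (final 0.05% Triton X-100, 1% formaldehyde, 1 ug/ml Hoechst) and counted on 4× images, and relative viability is the treated-to-vehicle nuclei ratio, as the median of duplicate plates.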

[2] = system: NCI-H1650
Outline: as §1

[3] = system: CAL-12T
Outline: as §1

[4] = system: BEN
Outline: as §1

[5] = system: HCC-827
Outline: as §1

[6] = system: NCI-H647
Outline: as §1

[7] = system: NCI-H1944
Outline: as §1

[8] = system: NCI-H2228
Outline: as §1

[9] = system: LCLC-103H
Outline: as §1

[10] = system: NCI-H2087
Outline: as §1

[11] = system: RERF-LC-KJ
Outline: as §1

[12] = system: NCI-H1793
Outline: as §1

[13] = system: NCI-H1395
Outline: as §1

[14] = system: NCI-H1792
Outline: as §1

[15] = system: NCI-H322M
Outline: as §1

[16] = system: SK-LU-1
Outline: as §1

[17] = system: NCI-H3122
Outline: as §1

[18] = system: NCI-H1437
Outline: as §1

[19] = system: LXF-289
Outline: as §1

[20] = system: NCI-H2405
Outline: as §1

[21] = system: 201T
Outline: as §1

[22] = system: LCLC-97TM1
Outline: as §1

O=c1cc(N2CCOCC2)oc2c(-c3cccc4c3sc3ccccc34)cccc12 + O=C(c1cc(Cc2n[nH]c(=O)c3ccccc23)ccc1F)N1CCN(C(=O)C2CC2)CC1 [Olaparib] (partner 8 µM)
relative viability ([1]; first compound 0.01 µM): 0.692
relative viability ([1]; first compound 0.03162 µM): 0.618
relative viability ([1]; first compound 0.1 µM): 0.679
relative viability ([1]; first compound 0.3162 µM): 0.711
relative viability ([1]; first compound 1 µM): 0.684
relative viability ([2]; first compound 0.01 µM): 0.667
relative viability ([2]; first compound 0.03162 µM): 0.752
relative viability ([2]; first compound 0.1 µM): 0.94
relative viability ([2]; first compound 0.3162 µM): 0.739
relative viability ([2]; first compound 1 µM): 0.624
relative viability ([3]; first compound 0.01 µM): 0.682
relative viability ([3]; first compound 0.03162 µM): 0.707
relative viability ([3]; first compound 0.1 µM): 0.75
relative viability ([3]; first compound 0.3162 µM): 0.693
relative viability ([3]; first compound 1 µM): 0.744
relative viability ([4]; first compound 0.01 µM): 1.12
relative viability ([4]; first compound 0.03162 µM): 1.21
relative viability ([4]; first compound 0.1 µM): 1.21
relative viability ([4]; first compound 0.3162 µM): 1.08
relative viability ([4]; first compound 1 µM): 1.1
relative viability ([5]; first compound 0.01 µM): 0.695
relative viability ([5]; first compound 0.03162 µM): 0.609
relative viability ([5]; first compound 0.1 µM): 0.623
relative viability ([5]; first compound 0.3162 µM): 0.641
relative viability ([5]; first compound 1 µM): 0.642
relative viability ([6]; first compound 0.01 µM): 0.538
relative viability ([6]; first compound 0.03162 µM): 0.682
relative viability ([6]; first compound 0.1 µM): 0.524
relative viability ([6]; first compound 0.3162 µM): 0.655
relative viability ([6]; first compound 1 µM): 0.592
relative viability ([7]; first compound 0.01 µM): 0.438
relative viability ([7]; first compound 0.03162 µM): 0.406
relative viability ([7]; first compound 0.1 µM): 0.4
relative viability ([7]; first compound 0.3162 µM): 0.384
relative viability ([7]; first compound 1 µM): 0.393
relative viability ([8]; first compound 0.01 µM): 0.646
relative viability ([8]; first compound 0.03162 µM): 0.654
relative viability ([8]; first compound 0.1 µM): 0.891
relative viability ([8]; first compound 0.3162 µM): 0.803
relative viability ([8]; first compound 1 µM): 0.571
relative viability ([9]; first compound 0.01 µM): 0.718
relative viability ([9]; first compound 0.03162 µM): 0.786
relative viability ([9]; first compound 0.1 µM): 0.771
relative viability ([9]; first compound 0.3162 µM): 0.707
relative viability ([9]; first compound 1 µM): 0.749
relative viability ([10]; first compound 0.01 µM): 0.544
relative viability ([10]; first compound 0.03162 µM): 0.65
relative viability ([10]; first compound 0.1 µM): 0.672
relative viability ([10]; first compound 0.3162 µM): 0.552
relative viability ([10]; first compound 1 µM): 0.587
relative viability ([11]; first compound 0.01 µM): 1.03
relative viability ([11]; first compound 0.03162 µM): 0.979
relative viability ([11]; first compound 0.1 µM): 0.965
relative viability ([11]; first compound 0.3162 µM): 0.703
relative viability ([11]; first compound 1 µM): 0.893
relative viability ([12]; first compound 0.01 µM): 0.77
relative viability ([12]; first compound 0.03162 µM): 0.857
relative viability ([12]; first compound 0.1 µM): 0.928
relative viability ([12]; first compound 0.3162 µM): 0.657
relative viability ([12]; first compound 1 µM): 0.738
relative viability ([13]; first compound 0.03162 µM): 0.457
relative viability ([13]; first compound 0.1 µM): 0.445
relative viability ([13]; first compound 0.3162 µM): 0.467
relative viability ([13]; first compound 1 µM): 0.498
relative viability ([14]; first compound 0.01 µM): 0.445
relative viability ([14]; first compound 0.03162 µM): 0.465
relative viability ([14]; first compound 0.3162 µM): 0.403
relative viability ([14]; first compound 1 µM): 0.405
relative viability ([15]; first compound 0.01 µM): 0.688
relative viability ([15]; first compound 0.03162 µM): 0.827
relative viability ([15]; first compound 0.3162 µM): 0.73
relative viability ([15]; first compound 1 µM): 0.725
relative viability ([16]; first compound 0.01 µM): 0.434
relative viability ([16]; first compound 0.03162 µM): 0.447
relative viability ([16]; first compound 0.1 µM): 0.387
relative viability ([16]; first compound 0.3162 µM): 0.52
relative viability ([16]; first compound 1 µM): 0.51
relative viability ([17]; first compound 0.01 µM): 0.604
relative viability ([17]; first compound 0.03162 µM): 0.679
relative viability ([17]; first compound 0.1 µM): 0.566
relative viability ([17]; first compound 0.3162 µM): 0.606
relative viability ([17]; first compound 1 µM): 0.614
relative viability ([18]; first compound 0.01 µM): 0.606
relative viability ([18]; first compound 0.03162 µM): 0.656
relative viability ([18]; first compound 0.1 µM): 0.725
relative viability ([18]; first compound 0.3162 µM): 0.656
relative viability ([18]; first compound 1 µM): 0.613
relative viability ([19]; first compound 0.01 µM): 1.01
relative viability ([19]; first compound 0.03162 µM): 1.08
relative viability ([19]; first compound 0.1 µM): 1.08
relative viability ([19]; first compound 0.3162 µM): 1.03
relative viability ([19]; first compound 1 µM): 1.11
relative viability ([20]; first compound 0.01 µM): 0.952
relative viability ([20]; first compound 0.03162 µM): 0.912
relative viability ([20]; first compound 0.1 µM): 0.945
relative viability ([20]; first compound 0.3162 µM): 0.832
relative viability ([20]; first compound 1 µM): 0.93
relative viability ([21]; first compound 0.01 µM): 0.817
relative viability ([21]; first compound 0.03162 µM): 0.842
relative viability ([21]; first compound 0.1 µM): 0.86
relative viability ([21]; first compound 0.3162 µM): 0.815
relative viability ([21]; first compound 1 µM): 0.866
relative viability ([22]; first compound 0.01 µM): 0.316
relative viability ([22]; first compound 0.03162 µM): 0.374
relative viability ([22]; first compound 0.1 µM): 0.502
relative viability ([22]; first compound 0.3162 µM): 0.269
relative viability ([22]; first compound 1 µM): 0.432

COc1nc(C)cnc1NS(=O)(=O)c1cccnc1-c1ccc(-c2nnco2)cc1 [Zibotentan] + COc1cccc2cc(-c3nc([C@H]4CC[C@H](C(=O)O)CC4)n4ncnc(N)c34)[nH]c12 [OSI-027] (partner 0.5 µM)
relative viability ([1]; first compound 0.08 µM): 0.591
relative viability ([1]; first compound 0.253 µM): 0.499
relative viability ([1]; first compound 0.8 µM): 0.601
relative viability ([1]; first compound 2.53 µM): 0.696
relative viability ([2]; first compound 0.08 µM): 0.579
relative viability ([2]; first compound 0.8 µM): 0.644
relative viability ([2]; first compound 2.53 µM): 0.716
relative viability ([3]; first compound 0.08 µM): 0.559
relative viability ([3]; first compound 0.253 µM): 0.551
relative viability ([3]; first compound 0.8 µM): 0.614
relative viability ([3]; first compound 2.53 µM): 0.629
relative viability ([4]; first compound 0.08 µM): 0.301
relative viability ([4]; first compound 0.253 µM): 0.286
relative viability ([4]; first compound 0.8 µM): 0.27
relative viability ([4]; first compound 2.53 µM): 0.261
relative viability ([5]; first compound 0.08 µM): 0.826
relative viability ([5]; first compound 0.253 µM): 0.836
relative viability ([5]; first compound 0.8 µM): 0.754
relative viability ([5]; first compound 2.53 µM): 0.767
relative viability ([6]; first compound 0.08 µM): 0.665
relative viability ([6]; first compound 0.253 µM): 0.584
relative viability ([6]; first compound 0.8 µM): 0.755
relative viability ([6]; first compound 2.53 µM): 0.725
relative viability ([7]; first compound 0.08 µM): 0.439
relative viability ([7]; first compound 0.253 µM): 0.393
relative viability ([7]; first compound 0.8 µM): 0.427
relative viability ([7]; first compound 2.53 µM): 0.465
relative viability ([8]; first compound 0.08 µM): 0.623
relative viability ([8]; first compound 0.253 µM): 0.571
relative viability ([8]; first compound 0.8 µM): 0.484
relative viability ([8]; first compound 2.53 µM): 0.659
relative viability ([9]; first compound 0.08 µM): 0.453
relative viability ([9]; first compound 0.253 µM): 0.467
relative viability ([9]; first compound 0.8 µM): 0.451
relative viability ([9]; first compound 2.53 µM): 0.465
relative viability ([10]; first compound 0.08 µM): 0.506
relative viability ([10]; first compound 0.253 µM): 0.506
relative viability ([10]; first compound 0.8 µM): 0.613
relative viability ([10]; first compound 2.53 µM): 0.632
relative viability ([11]; first compound 0.08 µM): 0.609
relative viability ([11]; first compound 0.8 µM): 0.521
relative viability ([11]; first compound 2.53 µM): 0.646
relative viability ([12]; first compound 0.08 µM): 0.351
relative viability ([12]; first compound 0.253 µM): 0.284
relative viability ([12]; first compound 0.8 µM): 0.224
relative viability ([12]; first compound 2.53 µM): 0.254
relative viability ([13]; first compound 0.08 µM): 0.727
relative viability ([13]; first compound 0.253 µM): 0.633
relative viability ([13]; first compound 0.8 µM): 0.577
relative viability ([13]; first compound 2.53 µM): 0.7
relative viability ([14]; first compound 0.08 µM): 0.803
relative viability ([14]; first compound 0.253 µM): 0.583
relative viability ([14]; first compound 0.8 µM): 0.563
relative viability ([14]; first compound 2.53 µM): 0.751
relative viability ([15]; first compound 0.08 µM): 0.578
relative viability ([15]; first compound 0.253 µM): 0.508
relative viability ([15]; first compound 0.8 µM): 0.657
relative viability ([15]; first compound 2.53 µM): 0.6
relative viability ([16]; first compound 0.08 µM): 0.38
relative viability ([16]; first compound 0.253 µM): 0.31
relative viability ([16]; first compound 0.8 µM): 0.344
relative viability ([16]; first compound 2.53 µM): 0.325
relative viability ([17]; first compound 0.08 µM): 1.01
relative viability ([17]; first compound 0.8 µM): 0.915
relative viability ([17]; first compound 2.53 µM): 0.957
relative viability ([18]; first compound 0.08 µM): 0.845
relative viability ([18]; first compound 0.253 µM): 0.84
relative viability ([18]; first compound 0.8 µM): 0.855
relative viability ([18]; first compound 2.53 µM): 0.919
relative viability ([19]; first compound 0.08 µM): 0.82
relative viability ([19]; first compound 0.253 µM): 0.794
relative viability ([19]; first compound 0.8 µM): 0.871
relative viability ([19]; first compound 2.53 µM): 0.839
relative viability ([20]; first compound 0.08 µM): 0.694
relative viability ([20]; first compound 0.253 µM): 0.657
relative viability ([20]; first compound 0.8 µM): 0.663
relative viability ([20]; first compound 2.53 µM): 0.627
relative viability ([21]; first compound 0.08 µM): 0.819
relative viability ([21]; first compound 0.253 µM): 0.699
relative viability ([21]; first compound 0.8 µM): 0.679
relative viability ([21]; first compound 2.53 µM): 0.755
relative viability ([22]; first compound 0.08 µM): 0.602
relative viability ([22]; first compound 0.253 µM): 0.72
relative viability ([22]; first compound 0.8 µM): 0.606
relative viability ([22]; first compound 2.53 µM): 0.49
